Laboratory results from paper PMC9661477, “New Dual P-Glycoprotein (P-gp) and Human Carbonic Anhydrase XII (hCA XII) Inhibitors as Multidrug Resistance (MDR) Reversers in Cancer Cells” (Journal of Medicinal Chemistry, 2022).
Where a name gives a salt, the structure may show the parent alone. Values belong to the compound of their own block, whether it stands above or below them.

What was measured:
hCA II = hCA II (Homo sapiens, UniProt P00918); assay: stopped-flow CO2 hydrase assay, hCA II; conditions: read-out: Ki hCA II; stopped-flow technique, mean from three different assays
Source text: (§4) An SX.18MV-R Applied Photophysics (Oxford, U.K.) stopped-flow instrument has been used to assay the catalytic/inhibition of various CA isozymes.[38] […] The inhibition constants were obtained by nonlinear least-squares methods using the Cheng–Prusoff equation, as reported earlier,[32] and represent the mean from at least three different determinations.

P-gp KO HT29/DOX cells = assay: intracellular accumulation of doxorubicin in P-gp KO HT29/DOX cells; type: cell-based, human; conditions: 24 h with 5 μM doxorubicin, compound at 1 and 3 μM
Procedure: (§1) A 50 μL aliquot was sonicated and used for the measurement of the protein content. […] Fluorescence was converted in nmol/mg cell proteins using a calibration curve previously set.

MRP1 = biological target: T1, MRP1 (Homo sapiens, UniProt P33527); assay: calcein-AM transport inhibition in MDCK-MRP1 cells; type: cell-based; conditions: NA, not active
T1 construct: expressed in transfected cells; host or cells: MDCK-MRP1 (Madin-Darby Canine Kidney, transfected; gift from Prof; P. Borst, NKI-AVL)
T1 sequence (P33527 whole entry): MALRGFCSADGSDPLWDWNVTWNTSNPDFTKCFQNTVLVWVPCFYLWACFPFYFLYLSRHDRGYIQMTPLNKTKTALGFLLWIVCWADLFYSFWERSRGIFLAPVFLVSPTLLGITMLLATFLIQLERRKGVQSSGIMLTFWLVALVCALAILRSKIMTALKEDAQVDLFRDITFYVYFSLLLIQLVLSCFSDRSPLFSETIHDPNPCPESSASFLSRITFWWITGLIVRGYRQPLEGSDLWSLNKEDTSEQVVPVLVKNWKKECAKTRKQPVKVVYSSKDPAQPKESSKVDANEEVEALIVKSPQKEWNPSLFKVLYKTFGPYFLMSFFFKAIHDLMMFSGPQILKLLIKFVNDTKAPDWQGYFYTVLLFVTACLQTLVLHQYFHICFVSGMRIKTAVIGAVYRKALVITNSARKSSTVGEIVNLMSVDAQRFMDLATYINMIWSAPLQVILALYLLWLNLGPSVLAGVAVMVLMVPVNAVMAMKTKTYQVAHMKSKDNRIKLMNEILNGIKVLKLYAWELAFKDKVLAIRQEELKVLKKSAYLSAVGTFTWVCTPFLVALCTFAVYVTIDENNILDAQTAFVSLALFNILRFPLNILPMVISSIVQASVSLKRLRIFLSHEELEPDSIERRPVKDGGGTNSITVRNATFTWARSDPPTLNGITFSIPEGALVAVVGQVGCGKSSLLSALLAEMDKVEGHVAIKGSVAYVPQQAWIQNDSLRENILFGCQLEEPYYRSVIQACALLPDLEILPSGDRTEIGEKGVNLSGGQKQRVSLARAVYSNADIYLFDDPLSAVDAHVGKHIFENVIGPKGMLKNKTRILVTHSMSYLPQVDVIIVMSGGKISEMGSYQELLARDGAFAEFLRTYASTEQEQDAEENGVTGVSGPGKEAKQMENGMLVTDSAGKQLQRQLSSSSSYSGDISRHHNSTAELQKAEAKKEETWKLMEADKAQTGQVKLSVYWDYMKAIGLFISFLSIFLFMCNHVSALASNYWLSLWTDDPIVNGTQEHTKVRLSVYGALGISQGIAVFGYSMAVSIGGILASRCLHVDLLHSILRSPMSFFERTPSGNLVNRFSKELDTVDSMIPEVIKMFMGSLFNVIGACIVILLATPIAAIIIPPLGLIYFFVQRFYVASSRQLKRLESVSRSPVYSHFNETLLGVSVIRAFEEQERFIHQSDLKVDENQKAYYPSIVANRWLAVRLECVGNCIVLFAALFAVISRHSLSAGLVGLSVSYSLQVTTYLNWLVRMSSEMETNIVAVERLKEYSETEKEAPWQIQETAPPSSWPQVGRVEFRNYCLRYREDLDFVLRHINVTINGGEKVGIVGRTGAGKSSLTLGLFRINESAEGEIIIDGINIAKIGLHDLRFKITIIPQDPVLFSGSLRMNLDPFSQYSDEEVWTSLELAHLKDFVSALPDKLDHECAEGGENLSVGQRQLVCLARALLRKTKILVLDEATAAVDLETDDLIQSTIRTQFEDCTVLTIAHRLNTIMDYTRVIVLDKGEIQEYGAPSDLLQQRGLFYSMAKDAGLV
Procedure: (§2) The inhibiting activity of the two compounds on P-gp and MRP1 was evaluated by measuring the transport inhibition of the profluorescent probe calcein-AM (P-gp and MRP1 substrate) in MDCK-MDR1 and MDCK-MRP1 cells (P-gp- and MRP1-overexpressing cells, respectively). The activity on BCRP was instead evaluated using the fluorescent probe Hoechst 33342 (BCRP substrate) in MDCK-BCRP cells (BCRP-overexpressing cells).[43]
(§3) MDCK-MDR1, MDCK-MRP1, and MDCK-BCRP cells are a gift from Prof. P. Borst, NKI-AVL Institute, Amsterdam, The Netherlands. Cells were grown in Dulbecco’s modified Eagle’s medium (DMEM) high glucose supplemented with 10% fetal bovine serum, 2 mM glutamine, 100 U/mL of penicillin, and 100 μg/mL of streptomycin in a humidified incubator at 37 °C with a 5% CO2 atmosphere. Cell culture reagents were purchased from Celbio s.r.l. (Milano, Italy). CulturePlate 96/wells plates were purchased from PerkinElmer Life Science (Waltham, MA) and Falcon (BD Biosciences, Bedford, MA). Calcein-AM and Hoechst 33342 (bisbenzimide H 33342 trihydrochloride) were obtained from Sigma-Aldrich (Milan, Italy). The other reagents were purchased from Sigma Merck Millipore.

hCA IX = hCA IX (Homo sapiens, UniProt Q16790); assay: stopped-flow CO2 hydrase assay, hCA IX; conditions: read-out: Ki hCA IX; stopped-flow technique, mean from three different assays
Source text: as §4

HT29/DOX cells = assay: intracellular accumulation of doxorubicin in HT29/DOX cells; type: cell-based, human; conditions: 24 h with 5 μM doxorubicin, compound at 1 and 3 μM, dose-dependent
Procedure: as §1

BCRP = biological target: T2, BCRP (Homo sapiens, UniProt Q9UNQ0); assay: Hoechst 33342 transport inhibition in MDCK-BCRP cells; type: cell-based; conditions: NA, not active
T2 construct: expressed in transfected cells; host or cells: MDCK-BCRP (Madin-Darby Canine Kidney, transfected; gift from Prof; P. Borst, NKI-AVL)
T2 sequence (Q9UNQ0 1-655): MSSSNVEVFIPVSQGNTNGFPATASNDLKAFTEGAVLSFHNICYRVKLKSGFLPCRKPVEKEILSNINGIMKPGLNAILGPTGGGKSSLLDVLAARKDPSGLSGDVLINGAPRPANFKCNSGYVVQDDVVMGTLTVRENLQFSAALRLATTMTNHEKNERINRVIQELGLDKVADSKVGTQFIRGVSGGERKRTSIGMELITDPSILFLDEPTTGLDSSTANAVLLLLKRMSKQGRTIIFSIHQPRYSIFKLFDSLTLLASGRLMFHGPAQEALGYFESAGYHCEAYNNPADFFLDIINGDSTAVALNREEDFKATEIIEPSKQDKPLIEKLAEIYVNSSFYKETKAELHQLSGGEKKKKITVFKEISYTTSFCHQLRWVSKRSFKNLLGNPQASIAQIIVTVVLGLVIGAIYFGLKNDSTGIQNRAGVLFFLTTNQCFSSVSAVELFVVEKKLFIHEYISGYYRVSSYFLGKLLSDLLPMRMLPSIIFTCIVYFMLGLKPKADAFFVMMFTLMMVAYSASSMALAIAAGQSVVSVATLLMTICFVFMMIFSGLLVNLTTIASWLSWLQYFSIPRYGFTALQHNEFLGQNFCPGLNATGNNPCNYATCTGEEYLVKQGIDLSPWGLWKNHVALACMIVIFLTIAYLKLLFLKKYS
Procedure: as §2, §3

P-gp = biological target: T3, P-gp (Homo sapiens, UniProt P08183); assay: calcein-AM transport inhibition in MDCK-MDR1 cells; type: cell-based; conditions: mean ± SEM
T3 construct: expressed in transfected cells; host or cells: MDCK-MDR1 (Madin-Darby Canine Kidney, transfected; gift from Prof; P. Borst, NKI-AVL)
T3 sequence (P08183 whole entry): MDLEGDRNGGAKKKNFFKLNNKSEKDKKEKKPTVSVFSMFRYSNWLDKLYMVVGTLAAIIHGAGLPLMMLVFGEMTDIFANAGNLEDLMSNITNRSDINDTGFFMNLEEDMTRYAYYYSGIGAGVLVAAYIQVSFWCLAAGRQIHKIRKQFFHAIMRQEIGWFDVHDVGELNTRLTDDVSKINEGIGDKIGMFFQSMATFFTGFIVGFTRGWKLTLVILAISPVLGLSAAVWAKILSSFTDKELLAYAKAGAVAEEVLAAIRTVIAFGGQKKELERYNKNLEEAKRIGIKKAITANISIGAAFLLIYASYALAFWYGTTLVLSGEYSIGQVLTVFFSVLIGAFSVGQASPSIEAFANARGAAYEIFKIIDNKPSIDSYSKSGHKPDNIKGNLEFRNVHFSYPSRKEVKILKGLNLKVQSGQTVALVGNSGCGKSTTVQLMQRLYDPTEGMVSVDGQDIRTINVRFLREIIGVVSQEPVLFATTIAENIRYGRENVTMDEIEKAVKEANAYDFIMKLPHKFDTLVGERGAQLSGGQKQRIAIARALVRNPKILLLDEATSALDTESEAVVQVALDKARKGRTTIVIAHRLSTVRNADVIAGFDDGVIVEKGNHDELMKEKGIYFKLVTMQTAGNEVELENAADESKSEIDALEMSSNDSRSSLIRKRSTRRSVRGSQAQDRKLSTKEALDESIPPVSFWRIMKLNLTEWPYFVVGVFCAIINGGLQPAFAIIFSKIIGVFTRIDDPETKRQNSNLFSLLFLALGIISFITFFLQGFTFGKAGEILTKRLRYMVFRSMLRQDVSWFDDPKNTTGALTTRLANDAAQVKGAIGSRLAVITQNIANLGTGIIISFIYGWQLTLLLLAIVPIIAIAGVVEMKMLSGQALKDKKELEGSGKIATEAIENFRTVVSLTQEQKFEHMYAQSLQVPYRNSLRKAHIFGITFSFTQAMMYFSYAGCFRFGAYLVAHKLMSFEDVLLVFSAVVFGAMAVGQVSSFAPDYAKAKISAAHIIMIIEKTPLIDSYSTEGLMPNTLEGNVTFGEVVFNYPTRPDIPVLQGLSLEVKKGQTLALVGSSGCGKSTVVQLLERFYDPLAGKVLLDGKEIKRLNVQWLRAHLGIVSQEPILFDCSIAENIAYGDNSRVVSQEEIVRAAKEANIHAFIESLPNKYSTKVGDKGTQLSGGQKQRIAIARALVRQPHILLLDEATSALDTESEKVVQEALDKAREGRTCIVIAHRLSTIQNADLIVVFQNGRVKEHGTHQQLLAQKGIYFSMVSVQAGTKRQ
Procedure: as §2, §3

P-gp KO A549/DOX cells = assay: intracellular accumulation of doxorubicin in P-gp KO A549/DOX cells; type: cell-based, human; conditions: 24 h with 5 μM doxorubicin, compound at 1 and 3 μM
Procedure: as §1

hCA I = hCA I (Homo sapiens, UniProt P00915); assay: stopped-flow CO2 hydrase assay, hCA I; conditions: read-out: Ki hCA I; stopped-flow technique, mean from three different assays
Chain of hCA I (P00915 whole entry): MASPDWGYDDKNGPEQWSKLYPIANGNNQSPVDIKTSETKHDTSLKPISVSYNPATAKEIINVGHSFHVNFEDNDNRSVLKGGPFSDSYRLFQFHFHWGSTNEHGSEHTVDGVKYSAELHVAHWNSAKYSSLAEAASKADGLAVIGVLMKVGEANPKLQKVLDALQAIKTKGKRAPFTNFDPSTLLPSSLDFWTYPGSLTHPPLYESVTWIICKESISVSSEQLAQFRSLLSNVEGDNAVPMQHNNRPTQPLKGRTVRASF
Source text: as §4

A549/DOX cells = assay: intracellular accumulation of doxorubicin in A549/DOX cells; type: cell-based, human; conditions: 24 h with 5 μM doxorubicin, compound at 1 and 3 μM, dose-dependent
Procedure: as §1

[1] = stability in human plasma, LC-MS/MS; type: in vitro ADME; conditions: reference compound, read-out: half-life (t1/2)
Procedure: The chemical stability of all of these diester derivatives was evaluated in phosphate-buffered solution (PBS) and human plasma samples. The stability analyses were performed by liquid chromatography coupled with a triple quadrupole mass spectrometry system (LC-MS/MS), operating in multiple reaction monitoring (MRM) mode. The LC-MS/MS instrument and parameters used are reported in the Supporting Information.
In these assays, we monitored the variation of our diester molecules’ concentration at four different incubation times both in PBS and in human plasma samples to evaluate their susceptibility toward spontaneous or enzymatic hydrolysis, respectively. By plotting any variation of analyte concentration vs the incubation time, the corresponding degradation profiles in both the tested matrices were obtained. […] Therefore, by plotting the natural logarithm of the quantitative data versus the incubation time, a linear function can be used, and its slope represents the degradation rate constant (k). Accordingly, with the linear function, the half-life (t1/2) of each tested compound can be calculated as follows [drawing 1] […]
Each set of samples was incubated in triplicate at four different times, 0, 30, 60, and 120 min at 37 °C. […] The obtained sample solutions were analyzed by LC-MS/MS methods described in the Supporting Information.

- half-life at 1 μM [1]: ≤ 2 h
Compound: CCOC(=O)C(C)c1cccc(C(=O)c2ccccc2)c1 (centres unmarked) [KEE, ketoprofen ethyl ester]

- melting point: 90 to 92 °C
Compound: COc1cc(/C=C/C(=O)OCCCCCCCN(CCCOC(=O)/C=C/c2cc(OC)c(OC)c(OC)c2)CCCOc2ccc3ccc(=O)oc3c2)cc(OC)c1OC (as salt: hydrochloride) [Compound 19, (E)-7-((3-((2-Oxo-2H-chromen-7-yl)oxy)propyl)(3-(((E)-3-(3,4,5-trimethoxyphenyl)acryloyl)oxy)propyl)amino)heptyl 3-(3,4,5-Trimethoxyphenyl)acrylate]

- melting point: 73 to 76 °C
Compound: COc1cc(/C=C/C(=O)OCCCN(CCCCCCCOC(=O)c2cc(OC)c(OC)c(OC)c2)CCCOc2ccc3ccc(=O)oc3c2)cc(OC)c1OC (as salt: hydrochloride) [Compound 22, (E)-7-((3-((2-Oxo-2H-chromen-7-yl)oxy)propyl)(3-((3-(3,4,5-trimethoxyphenyl)acryloyl)oxy)propyl)amino)heptyl 3,4,5-Trimethoxybenzoate]

Further lines, the compound ahead of its results:

Compound: COc1cc(C(=O)OCCCCCN(CCCOC(=O)c2cc(OC)c(OC)c(OC)c2)CCCOc2ccc3ccc(=O)oc3c2)cc(OC)c1OC [Compound 5, 5-((3-((2-Oxo-2H-chromen-7-yl)oxy)propyl)(3-((3,4,5-trimethoxybenzoyl)oxy)propyl)amino)pentyl 3,4,5-Trimethoxybenzoate]
- Ki (hCA II): > 10 µM
- intracellular retention of doxorubicin (P-gp KO HT29/DOX cells): did not significantly increase
- EC50 MRP1 (MRP1): completely inactive
- Ki (hCA IX): 0.0407 µM
- intracellular retention of doxorubicin (HT29/DOX cells): increased
- EC50 BCRP (BCRP): completely inactive
- EC50 (P-gp): 0.15 ± 0.02 µM
- intracellular retention of doxorubicin (P-gp KO A549/DOX cells): did not significantly increase
- Ki (hCA I): > 10 µM
- intracellular retention of doxorubicin (A549/DOX cells): increased

Compound: COc1cc(C(=O)OCCCCCCN(CCCOC(=O)c2cc(OC)c(OC)c(OC)c2)CCCOc2ccc3ccc(=O)oc3c2)cc(OC)c1OC [Compound 14, 6-((3-((2-Oxo-2H-chromen-7-yl)oxy)propyl)(3-((3,4,5-trimethoxybenzoyl)oxy)propyl)amino)hexyl 3,4,5-Trimethoxybenzoate]
- Ki (hCA II): > 10 µM
- intracellular retention of doxorubicin (P-gp KO HT29/DOX cells): did not significantly increase
- EC50 MRP1 (MRP1): completely inactive
- Ki (hCA IX): 0.0827 µM
- intracellular retention of doxorubicin (HT29/DOX cells): increased
- EC50 BCRP (BCRP): completely inactive
- EC50 (P-gp): 0.18 ± 0.03 µM
- intracellular retention of doxorubicin (P-gp KO A549/DOX cells): did not significantly increase
- Ki (hCA I): > 10 µM
- intracellular retention of doxorubicin (A549/DOX cells): increased

Compound: COc1cc(/C=C/C(=O)OCCCCCCN(CCCOC(=O)c2cc(OC)c(OC)c(OC)c2)CCCOc2ccc3ccc(=O)oc3c2)cc(OC)c1OC (as salt: hydrochloride) [Compound 11, (E)-3-((3-((2-Oxo-2H-chromen-7-yl)oxy)propyl)(6-((3-(3,4,5-trimethoxyphenyl)acryloyl)oxy)hexyl)amino)propyl 3,4,5-Trimethoxybenzoate]
- melting point: 71 to 74 °C

Compound: COc1cc(C(=O)OCCCCCN(CCCOC(=O)c2c3ccccc3cc3ccccc23)CCCOc2ccc3ccc(=O)oc3c2)cc(OC)c1OC (as salt: hydrochloride) [Compound 6, 3-((3-((2-Oxo-2H-chromen-7-yl)oxy)propyl)(5-((3,4,5-trimethoxybenzoyl)oxy)pentyl)amino)propyl Anthracene-9-carboxylate]
- melting point: 114 to 117 °C

Compound: COc1cc(/C=C/C(=O)OCCCCCN(CCCOC(=O)c2cc(OC)c(OC)c(OC)c2)CCCOc2ccc3ccc(=O)oc3c2)cc(OC)c1OC (as salt: hydrochloride) [Compound 2, (E)-3-((3-((2-Oxo-2H-chromen-7-yl)oxy)propyl)(5-((3-(3,4,5-trimethoxyphenyl)acryloyl)oxy)pentyl)amino)propyl 3,4,5-Trimethoxybenzoate]
- melting point: 128 to 131 °C
